Results on four compounds are retold here after US10233415B1, “Microfluidics cell culture device” (The Regents of the University of California, priority 2013, dated 2019).

Read-outs that look alike come from different tables or passages of the source.

Test [1] deals with hiPSC-CM derived cardiac tissue (WTC CMs) in the cardiac MPS. As to the kind of experiment: Cardiac MPS beat rate (motion tracking) drug response. In kind it is cell-based, human. Particulars: for effect on beats per minute (BPM): dose response. From the text:
A cardiac MPS that incorporates an in vitro 3D model of the human myocardium consisting of aligned CMs derived from hiPS cells was designed, fabricated and characterized with various in and ex situ monitoring tools. […] To characterize the functionality of the cardiac model, a motion tracking method capable of massive parallelization and high throughput analysis based on bright field microscopy as well as a custom made MEA enabling electrophysiological measurements inside the MPS was developed.
As an alternative to MEAs, a computational motion tracking method capable of performing high throughput analysis was developed. The computational motion tracking method analyzed the beating motion of cardiac tissue based on simple bright field movies (FIGS. 6A-C).
Drugs from classes that target a different physiological effect (i.e. ion channel, stimulant) were chosen, and the IC50 or EC50 values were determined.

A further test has as its system adult human slice. The note with it: adult human slice contractility; read-out: EC50 for the effect on adult human slice contractility; cited from earlier work.
Test [2] relates to LQT3 hiPSC-CM derived cardiac tissue in the MPS. Put plainly: LQT3 cardiac tissue in the MPS, beat frequency response. The test is classed as cell-based, human. The method, then: When fed continuously the tissue remained viable and functional for more than one month. Healthy and LQTS hiPSC-CM-derived cardiac tissue in the MPS were viable and amenable to continuous monitoring (e.g., MEA) and sampling for over 4 weeks. Beating tissues were created and loaded from multiple iPS cell lines, a disease cell line (LQT3), and the GCaMP6 isogenic reporter cell line.
FIG. 7. […] (B) Time dependent effect of 1 μM Isoproterenol (ISO) on bpm. * p<0.05 vs baseline.

Regarding `COCCc1ccc(OCC(O)CNC(C)C)cc1` (stereo not drawn) [Metoprolol], the IC50 in test [1] (Homo sapiens, cardiac MPS, beat rate, read-out: IC50, dose dependent decrease of beat rate) is 244000 nM.
Turning to `COc1ccc(CCN(C)CCCC(C#N)(c2ccc(OC)c(OC)c2)C(C)C)cc1OC` (stereo not drawn) [Verapamil], the IC50 in test [1] (Homo sapiens, read-out: IC50, dose dependent decrease of beat rate / beats per minute) came out at 950 nM. Besides, in test [1] (at high doses), the spontaneous beating result is on record as “abolished spontaneous beating”. In addition, the “effect on beats per minute (BPM)” value in test [1] (cardiac MPS) was “dose-dependent decrease”. The beat rate result in test [1] (exposure to 1 nM, multiple exposures on the same device) was “decreased the beat rate”.
Regarding `Cc1cccc(CCN2CCC(C(=O)c3ccc(NS(C)(=O)=O)cc3)CC2)n1` [E-4031], the IC50 in test [1] (cardiac MPS, beat rate, read-out: IC50, dose dependent decrease of beat rate / beats per minute) amounted to 392 nM.
In the case of `CC(C)NCC(O)c1ccc(O)c(O)c1` (stereo not drawn) [Isoproterenol], the EC50 was 100 to 200 nM with adult human slice and 315 nM in test [1] (Homo sapiens, cardiac MPS, beat rate, read-out: EC50, concentration dependent increase on absolute beating (beats per minute)). The beat frequency result in test [2] (100 nM concentration) is listed as “no effect”; in test [2] (10 min exposure to 1 μM), “approximately doubled”. In test [1] (cardiac MPS), the “effect on beats per minute (BPM)” value is given as “dose-dependent increase”. For the same compound, in test [1] (subsequent exposure to 1 μM, same device, after at least 48 hours wash), the beat rate entry is “increased the beat rate”.
